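Protocol summary: plate cells (96-well), add compound at 5 concentrations, incubate 48 h, interpolate endpoints linearly. The concentration for 50% growth inhibition is given as GI50.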 Active and inactive are the calls of the source. Rule as the data show it: active = GI50 up to about 1.1 µM and inactive = higher. Residues, ends and D or L forms follow the SMILES beside them. *: point of attachment. Boc = CC(C)(C)OC(=O)*
What was measured:
Test in all cases: growth of human tumour cells (NCI), 48 h
786-0 = test system: 786-0
A549 = test system: A549
ACHN = test system: ACHN
BT-549 = test system: BT-549
CAKI-1 = test system: CAKI-1
DU-145 = test system: DU-145
HCT-116 = test system: HCT-116
HOP-62 = test system: HOP-62
IGROV-1 = test system: IGROV-1
M14 = test system: M14
NCI-H226 = test system: NCI-H226
NCI-H23 = test system: NCI-H23
NCI-H460 = test system: NCI-H460
OVCAR-5 = test system: OVCAR-5
RXF 393 = test system: RXF 393
SK-MEL-2 = test system: SK-MEL-2
SN12C = test system: SN12C
UACC-257 = test system: UACC-257
UO-31 = test system: UO-31
A498 = test system: A498

SMILES	GI50 (786-0)	GI50 (A549)	GI50 (ACHN)	GI50 (BT-549)	GI50 (CAKI-1)	GI50 (DU-145)	GI50 (HCT-116)	GI50 (HOP-62)	GI50 (IGROV-1)	GI50 (M14)	GI50 (NCI-H226)	GI50 (NCI-H23)	GI50 (NCI-H460)	GI50 (OVCAR-5)	GI50 (RXF 393)	GI50 (SK-MEL-2)	GI50 (SN12C)	GI50 (UACC-257)	GI50 (UO-31)	GI50 (A498)
CC1=CC(=O)N(n2c(-c3ccccc3)n[nH]c2=O)C1=O	> 100 µM (inactive)	> 100 µM (inactive)	> 100 µM (inactive)	> 100 µM (inactive)	> 100 µM (inactive)	> 100 µM (inactive)	> 100 µM (inactive)	> 100 µM (inactive)	> 100 µM (inactive)	> 100 µM (inactive)	> 100 µM (inactive)	> 100 µM (inactive)	> 100 µM (inactive)	> 100 µM (inactive)	> 100 µM (inactive)	> 100 µM (inactive)	> 100 µM (inactive)	> 100 µM (inactive)	> 100 µM (inactive)	–
CSC1=NN=C(SC)NN1	0.182 µM (active)	0.204 µM (active)	0.168 µM (active)	0.151 µM (active)	0.173 µM (active)	0.202 µM (active)	0.167 µM (active)	0.201 µM (active)	0.166 µM (active)	0.184 µM (active)	0.181 µM (active)	0.285 µM (active)	0.196 µM (active)	0.179 µM (active)	–	0.145 µM (active)	0.18 µM (active)	0.131 µM (active)	0.188 µM (active)	–
COc1ccc(N2C(=O)C3c4[nH]c5cccc(Cl)c5c4C4CCC(C(C)(C)C)CC4C3C2=O)cc1 (stereo not drawn)	31.6 µM (inactive)	> 100 µM (inactive)	> 100 µM (inactive)	> 100 µM (inactive)	> 100 µM (inactive)	> 100 µM (inactive)	> 100 µM (inactive)	16.3 µM (inactive)	> 100 µM (inactive)	> 100 µM (inactive)	> 100 µM (inactive)	> 100 µM (inactive)	> 100 µM (inactive)	> 100 µM (inactive)	–	94.6 µM (inactive)	> 100 µM (inactive)	> 100 µM (inactive)	> 100 µM (inactive)	74.1 µM (inactive)
Cc1nc(Nc2nc3ccccc3[nH]2)nc(Cl)c1CCCl	> 100 µM (inactive)	> 100 µM (inactive)	> 100 µM (inactive)	> 100 µM (inactive)	> 100 µM (inactive)	> 100 µM (inactive)	> 100 µM (inactive)	–	> 100 µM (inactive)	> 100 µM (inactive)	> 100 µM (inactive)	> 100 µM (inactive)	> 100 µM (inactive)	–	–	> 100 µM (inactive)	> 100 µM (inactive)	> 100 µM (inactive)	> 100 µM (inactive)	> 100 µM (inactive)
CC(C)(C)OC(=O)NC(Cc1ccc(O)cc1)C(=O)NC(CCCCN)C(=O)O (stereo not drawn) (Boc-Tyr-Lys-OH; configuration not given here)	28.4 µM (inactive)	40.4 µM (inactive)	23.7 µM (inactive)	20 µM (inactive)	> 10 µM (inactive)	27 µM (inactive)	16.9 µM (inactive)	20.6 µM (inactive)	17.3 µM (inactive)	17.4 µM (inactive)	39.8 µM (inactive)	18.5 µM (inactive)	25.2 µM (inactive)	25 µM (inactive)	–	20.2 µM (inactive)	19.9 µM (inactive)	27.5 µM (inactive)	19.7 µM (inactive)	24.8 µM (inactive)
NS(=O)(=O)c1ccc2c(c1)OCCOCCOCCOCCO2	> 100 µM (inactive)	> 100 µM (inactive)	> 100 µM (inactive)	> 100 µM (inactive)	> 100 µM (inactive)	> 100 µM (inactive)	> 100 µM (inactive)	> 100 µM (inactive)	> 100 µM (inactive)	> 100 µM (inactive)	> 100 µM (inactive)	> 100 µM (inactive)	> 100 µM (inactive)	–	–	–	> 100 µM (inactive)	> 100 µM (inactive)	> 100 µM (inactive)	> 100 µM (inactive)
COc1ccc(C2SCC(=O)N2c2ccc(-c3ccc(-n4c(-c5ccccc5)nc5ccccc5c4=O)cc3)cc2)cc1 (stereo not drawn)	36.1 µM (inactive)	> 100 µM (inactive)	70 µM (inactive)	22.8 µM (inactive)	95.3 µM (inactive)	42 µM (inactive)	57.9 µM (inactive)	69.8 µM (inactive)	62.2 µM (inactive)	85.7 µM (inactive)	65.3 µM (inactive)	68.9 µM (inactive)	34.4 µM (inactive)	28.5 µM (inactive)	–	26.6 µM (inactive)	> 100 µM (inactive)	> 100 µM (inactive)	> 100 µM (inactive)	> 100 µM (inactive)
